Results taken from the kinase profiling compilation of Christmann-Franck et al. (2016).

Key:
Assay in all cases: KINOMEscan competition binding
Settings in all cases: compound 10.0 µM
IRAK3 (human) = IRAK3 (human) (UniProt Q9Y616)
[1] = system: KIT (human), P10721 [V559D]
STK33 (human) = STK33 (human) (UniProt Q9BYT3)
KDR (human) = KDR (human) (UniProt P35968)
CDK19 (human) = CDK19 (human) (UniProt Q9BWU1)
CSNK2A1 (human) = CSNK2A1 (human) (UniProt P68400)
DMPK (human) = DMPK (human) (UniProt Q09013)
EPHB1 (human) = EPHB1 (human) (UniProt P54762)
ACVR2A (human) = ACVR2A (human) (UniProt P27037)
MAP4K3 (human) = MAP4K3 (human) (UniProt Q8IVH8)
NEK6 (human) = NEK6 (human) (UniProt Q9HC98)
CDK8 (human) = CDK8 (human) (UniProt P49336)
RIPK2 (human) = RIPK2 (human) (UniProt O43353)
CDK16 (human) = CDK16 (human) (UniProt Q00536)
NTRK2 (human) = NTRK2 (human) (UniProt Q16620)
RPS6KA1 KD2 (human) = RPS6KA1 KD2 (human) (UniProt Q15418)
RIOK2 (human) = RIOK2 (human) (UniProt Q9BVS4)
RPS6KA1 KD1 (human) = RPS6KA1 KD1 (human) (UniProt Q15418)
PRKCD (human) = PRKCD (human) (UniProt Q05655)
PIP4K2B (human) = PIP4K2B (human) (UniProt P78356)
FGR (human) = FGR (human) (UniProt P09769)
TTK (human) = TTK (human) (UniProt P33981)
PRKAA2 (human) = PRKAA2 (human) (UniProt P54646)
CAMK1G (human) = CAMK1G (human) (UniProt Q96NX5)
[2] = system: EIF2AK4 KD2 (human), Q9P2K8 [S808G]
SGK110 (human) = SGK110 (human) (UniProt P0C264)
MAP2K1 (human) = MAP2K1 (human) (UniProt Q02750)
PDGFRA (human) = PDGFRA (human) (UniProt P16234)
MAP2K6 (human) = MAP2K6 (human) (UniProt P52564)
NEK9 (human) = NEK9 (human) (UniProt Q8TD19)
ULK2 (human) = ULK2 (human) (UniProt Q8IYT8)
AURKB (human) = AURKB (human) (UniProt Q96GD4)
EIF2AK2 (human) = EIF2AK2 (human) (UniProt P19525)
STK17A (human) = STK17A (human) (UniProt Q9UEE5)
RPS6KA4 KD2 (human) = RPS6KA4 KD2 (human) (UniProt O75676)
CSNK1G2 (human) = CSNK1G2 (human) (UniProt P78368)
PAK1 (human) = PAK1 (human) (UniProt Q13153)
FLT1 (human) = FLT1 (human) (UniProt P17948)
WEE2 (human) = WEE2 (human) (UniProt P0C1S8)
MAP2K2 (human) = MAP2K2 (human) (UniProt P36507)

Chain of ACVR2A (human) (P27037 whole entry, looked up): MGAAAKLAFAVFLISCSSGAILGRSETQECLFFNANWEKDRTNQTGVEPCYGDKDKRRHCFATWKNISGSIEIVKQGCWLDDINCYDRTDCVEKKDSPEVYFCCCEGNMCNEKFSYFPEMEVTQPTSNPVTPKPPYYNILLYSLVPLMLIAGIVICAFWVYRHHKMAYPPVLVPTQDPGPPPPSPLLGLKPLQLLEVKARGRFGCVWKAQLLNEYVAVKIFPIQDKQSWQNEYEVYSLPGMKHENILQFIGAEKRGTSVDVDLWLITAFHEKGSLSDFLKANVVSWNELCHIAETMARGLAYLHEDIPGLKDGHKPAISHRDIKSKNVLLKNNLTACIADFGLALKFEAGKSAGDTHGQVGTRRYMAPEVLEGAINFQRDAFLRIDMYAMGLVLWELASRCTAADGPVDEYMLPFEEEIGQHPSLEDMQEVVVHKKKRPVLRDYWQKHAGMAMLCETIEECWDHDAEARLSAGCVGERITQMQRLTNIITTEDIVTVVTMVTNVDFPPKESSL
Chain of IRAK3 (human) (Q9Y616 whole entry, looked up): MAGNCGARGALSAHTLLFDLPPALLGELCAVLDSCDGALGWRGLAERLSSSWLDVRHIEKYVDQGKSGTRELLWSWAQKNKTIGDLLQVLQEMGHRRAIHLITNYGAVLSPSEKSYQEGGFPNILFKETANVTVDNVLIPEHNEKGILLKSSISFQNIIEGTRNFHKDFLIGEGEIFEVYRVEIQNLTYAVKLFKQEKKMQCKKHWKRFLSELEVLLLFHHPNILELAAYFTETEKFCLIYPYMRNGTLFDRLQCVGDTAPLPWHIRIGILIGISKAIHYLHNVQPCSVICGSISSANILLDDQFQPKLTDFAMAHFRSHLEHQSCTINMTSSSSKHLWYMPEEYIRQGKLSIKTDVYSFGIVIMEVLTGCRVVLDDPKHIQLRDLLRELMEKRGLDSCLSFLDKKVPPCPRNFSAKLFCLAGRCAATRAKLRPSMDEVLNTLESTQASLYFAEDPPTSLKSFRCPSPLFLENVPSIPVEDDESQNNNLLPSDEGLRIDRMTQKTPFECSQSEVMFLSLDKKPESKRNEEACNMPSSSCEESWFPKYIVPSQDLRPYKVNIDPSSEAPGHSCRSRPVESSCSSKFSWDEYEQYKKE
Chain of CSNK2A1 (human) (P68400 whole entry, looked up): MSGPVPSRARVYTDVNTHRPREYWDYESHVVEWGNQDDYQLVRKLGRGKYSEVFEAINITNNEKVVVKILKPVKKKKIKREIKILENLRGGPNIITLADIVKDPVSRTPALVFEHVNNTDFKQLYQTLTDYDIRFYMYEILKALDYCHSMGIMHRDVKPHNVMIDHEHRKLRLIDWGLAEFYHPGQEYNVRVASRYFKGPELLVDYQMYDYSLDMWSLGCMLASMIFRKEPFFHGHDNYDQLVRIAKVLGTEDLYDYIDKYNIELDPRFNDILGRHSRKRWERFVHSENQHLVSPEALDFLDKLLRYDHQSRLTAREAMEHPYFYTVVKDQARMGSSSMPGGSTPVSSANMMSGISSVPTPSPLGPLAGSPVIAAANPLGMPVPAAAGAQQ
Chain of KIT (human), P10721 [V559D] (P10721 whole entry V559D, looked up): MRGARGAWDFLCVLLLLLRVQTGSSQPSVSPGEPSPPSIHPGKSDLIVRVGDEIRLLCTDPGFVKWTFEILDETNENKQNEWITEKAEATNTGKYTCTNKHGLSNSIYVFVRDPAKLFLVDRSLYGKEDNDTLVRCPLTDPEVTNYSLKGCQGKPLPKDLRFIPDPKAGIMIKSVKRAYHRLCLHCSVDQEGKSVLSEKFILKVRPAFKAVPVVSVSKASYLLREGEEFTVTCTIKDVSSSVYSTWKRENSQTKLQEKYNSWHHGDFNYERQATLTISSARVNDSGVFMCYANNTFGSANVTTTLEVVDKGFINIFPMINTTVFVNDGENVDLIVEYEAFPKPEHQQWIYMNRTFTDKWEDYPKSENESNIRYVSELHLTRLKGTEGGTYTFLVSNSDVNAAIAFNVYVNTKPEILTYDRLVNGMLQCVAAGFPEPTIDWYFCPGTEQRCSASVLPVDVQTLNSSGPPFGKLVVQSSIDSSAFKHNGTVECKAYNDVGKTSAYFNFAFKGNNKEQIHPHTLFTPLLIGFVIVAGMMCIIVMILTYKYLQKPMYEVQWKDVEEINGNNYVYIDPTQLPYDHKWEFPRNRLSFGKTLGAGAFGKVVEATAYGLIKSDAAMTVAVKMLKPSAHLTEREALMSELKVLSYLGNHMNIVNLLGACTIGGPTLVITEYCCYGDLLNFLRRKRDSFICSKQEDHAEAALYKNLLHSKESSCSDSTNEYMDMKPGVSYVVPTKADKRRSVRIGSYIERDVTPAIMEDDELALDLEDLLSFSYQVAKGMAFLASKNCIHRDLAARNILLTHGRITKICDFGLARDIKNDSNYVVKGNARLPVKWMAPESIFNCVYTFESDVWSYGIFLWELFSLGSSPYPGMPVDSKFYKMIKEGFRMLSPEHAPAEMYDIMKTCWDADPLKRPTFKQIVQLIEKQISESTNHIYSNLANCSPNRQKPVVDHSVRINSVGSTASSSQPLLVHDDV
Chain of RIPK2 (human) (O43353 whole entry, looked up): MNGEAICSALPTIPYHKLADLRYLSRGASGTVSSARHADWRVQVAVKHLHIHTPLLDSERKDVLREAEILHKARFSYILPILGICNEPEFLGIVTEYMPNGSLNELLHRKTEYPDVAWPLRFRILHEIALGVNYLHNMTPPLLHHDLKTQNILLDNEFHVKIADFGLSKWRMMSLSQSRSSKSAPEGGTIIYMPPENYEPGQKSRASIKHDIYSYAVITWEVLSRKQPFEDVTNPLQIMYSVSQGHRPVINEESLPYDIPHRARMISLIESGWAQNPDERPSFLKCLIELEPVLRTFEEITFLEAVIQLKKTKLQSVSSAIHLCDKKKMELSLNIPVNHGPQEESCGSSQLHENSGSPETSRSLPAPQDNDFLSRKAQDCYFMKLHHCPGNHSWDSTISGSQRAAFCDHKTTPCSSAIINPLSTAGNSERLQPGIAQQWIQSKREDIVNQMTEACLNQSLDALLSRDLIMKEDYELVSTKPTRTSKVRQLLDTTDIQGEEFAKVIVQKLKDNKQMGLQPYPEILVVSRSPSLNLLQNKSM
Chain of WEE2 (human) (P0C1S8 whole entry, looked up): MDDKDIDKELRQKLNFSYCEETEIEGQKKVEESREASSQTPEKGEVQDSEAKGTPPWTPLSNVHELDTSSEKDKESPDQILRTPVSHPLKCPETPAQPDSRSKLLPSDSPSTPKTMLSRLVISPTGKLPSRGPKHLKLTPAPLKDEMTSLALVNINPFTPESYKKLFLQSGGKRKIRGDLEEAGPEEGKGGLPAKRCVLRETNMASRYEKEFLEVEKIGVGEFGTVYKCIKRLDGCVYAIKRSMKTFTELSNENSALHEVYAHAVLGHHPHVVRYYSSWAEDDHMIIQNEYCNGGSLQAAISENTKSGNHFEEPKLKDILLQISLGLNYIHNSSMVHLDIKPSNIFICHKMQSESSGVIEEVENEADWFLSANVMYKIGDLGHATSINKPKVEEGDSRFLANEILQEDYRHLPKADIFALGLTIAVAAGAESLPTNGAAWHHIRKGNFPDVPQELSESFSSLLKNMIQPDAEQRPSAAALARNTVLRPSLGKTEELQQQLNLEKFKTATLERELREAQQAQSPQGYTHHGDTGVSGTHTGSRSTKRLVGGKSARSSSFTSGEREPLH
Chain of AURKB (human) (Q96GD4 whole entry, looked up): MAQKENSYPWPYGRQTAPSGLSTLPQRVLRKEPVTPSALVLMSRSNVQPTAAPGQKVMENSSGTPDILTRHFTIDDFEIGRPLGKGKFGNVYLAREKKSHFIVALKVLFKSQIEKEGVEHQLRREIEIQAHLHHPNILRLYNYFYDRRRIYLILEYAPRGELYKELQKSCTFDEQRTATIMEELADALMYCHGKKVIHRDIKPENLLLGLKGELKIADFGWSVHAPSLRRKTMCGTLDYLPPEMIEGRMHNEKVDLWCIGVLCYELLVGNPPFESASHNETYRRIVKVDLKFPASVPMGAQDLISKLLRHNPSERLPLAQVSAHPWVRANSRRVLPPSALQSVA
Chain of PAK1 (human) (Q13153 whole entry, looked up): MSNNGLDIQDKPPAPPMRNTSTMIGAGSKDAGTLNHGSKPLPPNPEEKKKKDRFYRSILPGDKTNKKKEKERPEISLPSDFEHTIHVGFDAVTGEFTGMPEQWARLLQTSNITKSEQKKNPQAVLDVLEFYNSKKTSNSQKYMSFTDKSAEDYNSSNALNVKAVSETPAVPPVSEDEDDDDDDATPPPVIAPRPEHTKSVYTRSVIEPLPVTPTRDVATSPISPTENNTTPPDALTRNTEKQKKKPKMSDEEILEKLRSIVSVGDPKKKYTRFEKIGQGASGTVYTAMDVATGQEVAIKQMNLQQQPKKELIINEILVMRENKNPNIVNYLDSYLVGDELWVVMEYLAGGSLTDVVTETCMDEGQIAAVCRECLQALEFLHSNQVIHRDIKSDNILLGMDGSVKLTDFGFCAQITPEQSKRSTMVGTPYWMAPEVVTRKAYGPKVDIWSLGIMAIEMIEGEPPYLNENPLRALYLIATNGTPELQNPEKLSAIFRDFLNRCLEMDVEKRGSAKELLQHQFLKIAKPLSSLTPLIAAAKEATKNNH
Chain of STK33 (human) (Q9BYT3 whole entry, looked up): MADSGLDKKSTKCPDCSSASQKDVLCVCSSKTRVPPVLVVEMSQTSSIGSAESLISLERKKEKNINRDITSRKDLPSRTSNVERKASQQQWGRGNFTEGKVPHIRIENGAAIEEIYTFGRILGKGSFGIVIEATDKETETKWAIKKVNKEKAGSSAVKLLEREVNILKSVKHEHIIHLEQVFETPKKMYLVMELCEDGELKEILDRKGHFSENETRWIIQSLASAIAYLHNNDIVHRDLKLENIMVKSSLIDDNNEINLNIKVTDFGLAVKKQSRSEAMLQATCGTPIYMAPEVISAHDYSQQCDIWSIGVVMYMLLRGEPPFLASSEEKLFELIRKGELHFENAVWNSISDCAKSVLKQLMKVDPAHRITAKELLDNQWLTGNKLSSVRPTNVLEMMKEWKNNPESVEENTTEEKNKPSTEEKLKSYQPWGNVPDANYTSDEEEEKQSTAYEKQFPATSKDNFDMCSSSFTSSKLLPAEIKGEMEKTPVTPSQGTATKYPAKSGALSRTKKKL

kinase still bound, per cent of control (IRAK3 (human)) [%] | kinase still bound, per cent of control [1] [%] | kinase still bound, per cent of control (STK33 (human)) [%] | kinase still bound, per cent of control (KDR (human)) [%] | kinase still bound, per cent of control (CDK19 (human)) [%] | kinase still bound, per cent of control (CSNK2A1 (human)) [%] | kinase still bound, per cent of control (DMPK (human)) [%] | kinase still bound, per cent of control (EPHB1 (human)) [%] | kinase still bound, per cent of control (ACVR2A (human)) [%] | kinase still bound, per cent of control (MAP4K3 (human)) [%] | kinase still bound, per cent of control (NEK6 (human)) [%] | kinase still bound, per cent of control (CDK8 (human)) [%] | kinase still bound, per cent of control (RIPK2 (human)) [%] | kinase still bound, per cent of control (CDK16 (human)) [%] | kinase still bound, per cent of control (NTRK2 (human)) [%] | kinase still bound, per cent of control (RPS6KA1 KD2 (human)) [%] | kinase still bound, per cent of control (RIOK2 (human)) [%] | kinase still bound, per cent of control (RPS6KA1 KD1 (human)) [%] | kinase still bound, per cent of control (PRKCD (human)) [%] | kinase still bound, per cent of control (PIP4K2B (human)) [%] | Structure (SMILES) | other results
100 | 0 | 100 | 100 | 25 | 100 | 100 | 1.8 | 100 | 100 | 100 | 100 | 100 | 100 | 32 | 100 | 100 | 100 | 100 | 100 | Cc1ccc(C(=O)Nc2cccc(C(F)(F)F)c2)cc1Nc1cncc(C(N)=O)c1 | kinase still bound, per cent of control (FGR (human)): 100%; kinase still bound, per cent of control (TTK (human)): 100%; kinase still bound, per cent of control (PRKAA2 (human)): 100%; kinase still bound, per cent of control (CAMK1G (human)): 100%; kinase still bound, per cent of control [2]: 100%; kinase still bound, per cent of control (SGK110 (human)): 100%; kinase still bound, per cent of control (MAP2K1 (human)): 100%; kinase still bound, per cent of control (PDGFRA (human)): 0.2%; kinase still bound, per cent of control (MAP2K6 (human)): 100%; kinase still bound, per cent of control (NEK9 (human)): 100%; kinase still bound, per cent of control (ULK2 (human)): 100%; kinase still bound, per cent of control (AURKB (human)): 100%; kinase still bound, per cent of control (EIF2AK2 (human)): 100%; kinase still bound, per cent of control (STK17A (human)): 100%; kinase still bound, per cent of control (RPS6KA4 KD2 (human)): 100%; kinase still bound, per cent of control (CSNK1G2 (human)): 100%; kinase still bound, per cent of control (PAK1 (human)): 100%; kinase still bound, per cent of control (FLT1 (human)): 33%; kinase still bound, per cent of control (WEE2 (human)): 100%; kinase still bound, per cent of control (MAP2K2 (human)): 100%
34 | 26 | 1.3 | 100 | 100 | 100 | 17 | 100 | 100 | 29 | 9 | 100 | 100 | 100 | 100 | 100 | 12 | 12 | 100 | 100 | C=CC(=O)Nc1cccc(Oc2nc(Nc3ccc(N4CCN(C)CC4)cc3OC)ncc2Cl)c1 | kinase still bound, per cent of control (FGR (human)): 100%; kinase still bound, per cent of control (TTK (human)): 2%; kinase still bound, per cent of control (PRKAA2 (human)): 100%; kinase still bound, per cent of control (CAMK1G (human)): 100%; kinase still bound, per cent of control [2]: 0.35%; kinase still bound, per cent of control (SGK110 (human)): 100%; kinase still bound, per cent of control (MAP2K1 (human)): 100%; kinase still bound, per cent of control (PDGFRA (human)): 100%; kinase still bound, per cent of control (MAP2K6 (human)): 100%; kinase still bound, per cent of control (NEK9 (human)): 100%; kinase still bound, per cent of control (ULK2 (human)): 2%; kinase still bound, per cent of control (AURKB (human)): 20%; kinase still bound, per cent of control (EIF2AK2 (human)): 100%; kinase still bound, per cent of control (STK17A (human)): 1.6%; kinase still bound, per cent of control (RPS6KA4 KD2 (human)): 16%; kinase still bound, per cent of control (CSNK1G2 (human)): 100%; kinase still bound, per cent of control (PAK1 (human)): 100%; kinase still bound, per cent of control (FLT1 (human)): 100%; kinase still bound, per cent of control (WEE2 (human)): 100%; kinase still bound, per cent of control (MAP2K2 (human)): 100%
100 | 100 | 3.6 | 100 | 100 | 100 | 100 | 100 | 100 | 100 | 100 | 100 | 100 | 100 | 100 | 22 | 100 | 100 | 100 | 100 | COc1cc(C(=O)NC2CCN(C)CC2)ccc1Nc1ncc2c(n1)N(C1CCCC1)C(C)CC(=O)N2C (stereo not given) | kinase still bound, per cent of control (FGR (human)): 100%; kinase still bound, per cent of control (TTK (human)): 4.6%; kinase still bound, per cent of control (PRKAA2 (human)): 100%; kinase still bound, per cent of control (CAMK1G (human)): 100%; kinase still bound, per cent of control [2]: 100%; kinase still bound, per cent of control (SGK110 (human)): 100%; kinase still bound, per cent of control (MAP2K1 (human)): 100%; kinase still bound, per cent of control (PDGFRA (human)): 100%; kinase still bound, per cent of control (MAP2K6 (human)): 100%; kinase still bound, per cent of control (NEK9 (human)): 100%; kinase still bound, per cent of control (ULK2 (human)): 100%; kinase still bound, per cent of control (AURKB (human)): 100%; kinase still bound, per cent of control (EIF2AK2 (human)): 100%; kinase still bound, per cent of control (STK17A (human)): 100%; kinase still bound, per cent of control (RPS6KA4 KD2 (human)): 100%; kinase still bound, per cent of control (CSNK1G2 (human)): 100%; kinase still bound, per cent of control (PAK1 (human)): 100%; kinase still bound, per cent of control (FLT1 (human)): 100%; kinase still bound, per cent of control (WEE2 (human)): 100%; kinase still bound, per cent of control (MAP2K2 (human)): 100%
